Measurements reported in PubChem BioAssay AID504822 (The Scripps Research Institute Molecular Screening Center, 2011).
Activity calls are given as the source filed them.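 Rule for the calls: active = EC50 for procaspase-7 activation at or below 10 µM; inactive = EC50 above 10 µM.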

Molecular target: Caspase-7 (Homo sapiens) (UniProt P55210)
Experiment: procaspase-7 activation potency, dual candidates – biochemical, absorbance, PC-7 D3A triple mutant, powder samples, late-stage follow-up (AID 504822)
Conditions: recombinant procaspase-7 D3A, Ac-DEVD-pNA absorbance

Caspase-7 (Homo sapiens), sequence (P55210 whole entry D23A/D198A/D206A): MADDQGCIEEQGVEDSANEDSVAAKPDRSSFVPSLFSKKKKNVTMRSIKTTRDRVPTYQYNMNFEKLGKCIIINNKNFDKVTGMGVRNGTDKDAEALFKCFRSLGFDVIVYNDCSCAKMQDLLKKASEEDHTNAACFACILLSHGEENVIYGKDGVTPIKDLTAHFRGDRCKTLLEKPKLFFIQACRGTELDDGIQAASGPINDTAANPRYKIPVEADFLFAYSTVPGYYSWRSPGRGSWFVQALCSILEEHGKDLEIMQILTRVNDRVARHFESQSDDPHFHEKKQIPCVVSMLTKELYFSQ

Compound | EC50
Cc1[nH]nc2c1C(c1c[nH]c3ccccc13)C(C#N)=C(N)O2 (stereo not given) | 4.49 µM
O=C(C1=NN(c2ccccc2)C2C(=O)N(c3ccccc3)C(=O)C12)c1ccccc1 (stereo not given) | > 85.3 µM (inactive)
O=C(Nc1ccc(Cc2ccncc2)cc1)C1CCC(N2C(=O)C3C4C=CC(C5CC45)C3C2=O)CC1 (stereo not given) | > 85.3 µM (inactive)
COc1ccccc1N1C(=O)C2C(C(=O)c3ccccc3)=NN(c3ccccc3)C2C1=O (stereo not given) | > 85.3 µM (inactive)
COC(=O)C1=NN(c2ccc(Cl)cc2)C2C(=O)N(c3ccccc3OC)C(=O)C12 (stereo not given) | > 85.3 µM (inactive)
